Target: StAhpC (Salmonella typhimurium AhpC; alkyl hydroperoxide reductase C component) (Salmonella enterica, UniProt P0A251)
Assay: stopped-flow Trp fluorescence, double-exponential fit
Format: biochemical
Details: reduced enzyme, no reductase; pH 7.0, 25 °C; peroxidatic Cys46

StAhpC (Salmonella typhimurium AhpC; alkyl hydroperoxide reductase C component), sequence (P0A251 2-187): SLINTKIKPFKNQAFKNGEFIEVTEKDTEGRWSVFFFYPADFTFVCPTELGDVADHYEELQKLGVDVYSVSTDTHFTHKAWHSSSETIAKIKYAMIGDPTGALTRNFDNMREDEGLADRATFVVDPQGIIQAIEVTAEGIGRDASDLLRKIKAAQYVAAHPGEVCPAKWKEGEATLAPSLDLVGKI

| Compound | slope of kobs vs [ROOH], first phase |
| --- | --- |
| CC(C)(OO)c1ccccc1 [cumene hydroperoxide] | black those for cumene hydroperoxide |
| CCOO [ethyl hydroperoxide] | red those for ethyl hydroperoxide |

Source: paper PMC4489686 (Biochemistry, 2015)
